Experimental data taken from patent US20120245137A1 (Zalicus Pharmaceuticals Ltd., priority 2009, published 2012).
pIC50: −log10 of the molar value. Where two headings read alike, the source gives them in different places.

Key:
[1] = target: human α1G T-type channels (Homo sapiens, UniProt O43497); assay: T-type calcium channel block, whole cell patch clamp, α1G; assay type: cell-based; conditions: HEK cells stably expressing human α1G; mainly non-inactivated protocol; values above 10,000 nM represented as 10000
Outline: (§1)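 Read-out: current block in whole-cell patch clamp of HEK 293 cells stably expressing human α1G or α1H subunits. Compounds were perfused locally in external solution (0.1-0.01% DMSO) under resting and inactivating voltage protocols.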

[2] = target: human α1H T-type channels (Homo sapiens, UniProt O95180); assay: T-type calcium channel block, whole cell patch clamp, α1H; assay type: cell-based; conditions: HEK cells stably expressing human α1H; mainly non-inactivated protocol; values above 10,000 nM represented as 10000
Outline: as §1

[3] = target: N-type calcium channel subunits (α1B, α2δ, and β3a) (Homo sapiens, UniProt Q00975); assay: Block of Cav2.2 channel, whole cell voltage clamp, manual and PatchXpress; assay type: cell-based; conditions: Table 5; table follows Assay Example 3 (whole cell voltage clamp / PatchXpress); assay not given
Outline: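 Percent block taken as current amplitude ratio with versus without compound, applied in rising doses; IC50 fitted where one cell received multiple doses. Protocol: 50 ms pulses to +20 mV at 0.067 Hz from […] or −90 mV holding; P/n leak subtraction, no junction-potential correction; manual and PatchXpress recordings.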

[4] = system: male CF1 mice; assay: 6 Hz psychomotor seizure model of partial epilepsy; assay type: in vivo; set-up: concentration or dose not given beside the values; conditions: 6 Hz 32 mA corneal stimulus
From the text: Compounds can also be evaluated for the protection against seizures induced by a 6 Hz, 0.2 ms rectangular pulse width of 3 s duration, at a stimulus intensity of 32 mA (CC97) applied to the cornea of male CF1 mice (20-30 g) according to procedures described by Barton et al, “Pharmacological Characterization of the 6 Hz Psychomotor Seizure Model of Partial Epilepsy,” Epilepsy Res. 47(3):217-27 (2001). Seizures are characterised by the expression of one or more of the following behaviours: stun, forelimb clonus, twitching of the vibrissae and Straub-tail immediately following electrical stimulation.

[5] = system: mice; assay: Mouse rotarod assay; conditions: rod at 6 rpm
Experimental: (§2) In mice, the rotarod procedure (Dunham and Miya, J. Am. Pharmacol. Assoc. 46:208-209 (1957)) is used to disclose minimal muscular or neurological impairment (MMI). When a mouse is placed on a rod that rotates at a speed of 6 rpm, the animal can maintain its equilibrium for long periods of time. The animal is considered toxic if it falls off this rotating rod three times during a 1-min period.

[6] = system: mice; conditions: mouse, in vivo
Experimental: as §2

N-type calcium channel subunits (α1B, α2δ, and β3a), sequence (Q00975 whole entry): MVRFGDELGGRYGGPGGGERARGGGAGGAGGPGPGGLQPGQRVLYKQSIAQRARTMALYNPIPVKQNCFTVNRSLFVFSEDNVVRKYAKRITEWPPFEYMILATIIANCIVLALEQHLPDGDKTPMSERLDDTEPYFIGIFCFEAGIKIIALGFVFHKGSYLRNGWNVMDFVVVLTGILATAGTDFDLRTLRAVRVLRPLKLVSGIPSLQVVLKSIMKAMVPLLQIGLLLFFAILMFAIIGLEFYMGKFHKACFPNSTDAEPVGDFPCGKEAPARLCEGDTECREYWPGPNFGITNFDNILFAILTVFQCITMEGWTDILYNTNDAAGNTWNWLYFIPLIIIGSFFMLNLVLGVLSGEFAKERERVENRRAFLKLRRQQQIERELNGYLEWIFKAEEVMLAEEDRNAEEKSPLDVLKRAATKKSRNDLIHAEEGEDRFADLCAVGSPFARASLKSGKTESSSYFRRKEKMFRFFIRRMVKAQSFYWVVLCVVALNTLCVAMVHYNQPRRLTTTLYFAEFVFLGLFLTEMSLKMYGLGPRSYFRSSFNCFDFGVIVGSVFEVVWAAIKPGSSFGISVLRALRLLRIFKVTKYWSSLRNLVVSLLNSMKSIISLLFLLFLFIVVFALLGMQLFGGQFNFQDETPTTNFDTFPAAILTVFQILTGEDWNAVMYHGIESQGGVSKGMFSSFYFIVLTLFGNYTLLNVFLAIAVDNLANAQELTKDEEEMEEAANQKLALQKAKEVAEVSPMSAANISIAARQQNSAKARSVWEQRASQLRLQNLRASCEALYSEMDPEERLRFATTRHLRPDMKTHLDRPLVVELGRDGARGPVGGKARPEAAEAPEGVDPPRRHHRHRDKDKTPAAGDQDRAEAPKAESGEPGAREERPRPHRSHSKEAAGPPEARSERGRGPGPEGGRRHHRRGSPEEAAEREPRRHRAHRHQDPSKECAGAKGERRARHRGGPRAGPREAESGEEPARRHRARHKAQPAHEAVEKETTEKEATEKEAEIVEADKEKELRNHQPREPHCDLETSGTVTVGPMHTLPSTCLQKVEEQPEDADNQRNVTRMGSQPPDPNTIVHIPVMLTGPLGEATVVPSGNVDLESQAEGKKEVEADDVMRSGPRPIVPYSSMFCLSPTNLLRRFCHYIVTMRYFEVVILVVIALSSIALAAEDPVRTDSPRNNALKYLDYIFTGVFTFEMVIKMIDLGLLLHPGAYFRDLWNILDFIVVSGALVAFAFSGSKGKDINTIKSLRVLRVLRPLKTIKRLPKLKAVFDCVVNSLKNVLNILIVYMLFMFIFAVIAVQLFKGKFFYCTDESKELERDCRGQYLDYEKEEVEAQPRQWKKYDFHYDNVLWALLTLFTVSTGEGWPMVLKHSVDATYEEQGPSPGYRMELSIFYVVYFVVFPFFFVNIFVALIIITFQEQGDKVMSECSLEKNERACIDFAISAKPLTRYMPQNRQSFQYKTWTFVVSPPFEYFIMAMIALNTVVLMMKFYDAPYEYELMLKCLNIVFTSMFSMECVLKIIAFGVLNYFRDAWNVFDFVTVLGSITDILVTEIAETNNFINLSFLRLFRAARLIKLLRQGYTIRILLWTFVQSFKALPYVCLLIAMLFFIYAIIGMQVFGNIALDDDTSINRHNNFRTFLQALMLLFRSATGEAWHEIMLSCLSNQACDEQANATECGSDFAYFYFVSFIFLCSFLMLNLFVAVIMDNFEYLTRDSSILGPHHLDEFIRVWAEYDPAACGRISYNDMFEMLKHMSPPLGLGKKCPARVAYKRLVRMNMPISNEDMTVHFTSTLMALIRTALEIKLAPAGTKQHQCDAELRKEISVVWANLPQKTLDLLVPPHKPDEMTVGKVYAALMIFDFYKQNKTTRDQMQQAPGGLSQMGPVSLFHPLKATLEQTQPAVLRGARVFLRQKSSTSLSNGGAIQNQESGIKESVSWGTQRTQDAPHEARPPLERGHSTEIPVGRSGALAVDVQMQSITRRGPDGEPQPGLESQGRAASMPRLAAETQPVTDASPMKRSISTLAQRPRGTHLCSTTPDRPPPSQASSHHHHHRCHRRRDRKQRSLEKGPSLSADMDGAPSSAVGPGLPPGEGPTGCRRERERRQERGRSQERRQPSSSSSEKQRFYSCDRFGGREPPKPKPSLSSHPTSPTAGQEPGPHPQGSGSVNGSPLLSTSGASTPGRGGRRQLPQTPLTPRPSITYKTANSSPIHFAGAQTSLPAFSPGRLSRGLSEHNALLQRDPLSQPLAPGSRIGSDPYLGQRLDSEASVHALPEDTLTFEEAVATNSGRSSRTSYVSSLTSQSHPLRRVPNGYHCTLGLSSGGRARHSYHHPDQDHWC
N-type calcium channel subunits (α1B, α2δ, and β3a), sequence (P54289 25-1103 partner): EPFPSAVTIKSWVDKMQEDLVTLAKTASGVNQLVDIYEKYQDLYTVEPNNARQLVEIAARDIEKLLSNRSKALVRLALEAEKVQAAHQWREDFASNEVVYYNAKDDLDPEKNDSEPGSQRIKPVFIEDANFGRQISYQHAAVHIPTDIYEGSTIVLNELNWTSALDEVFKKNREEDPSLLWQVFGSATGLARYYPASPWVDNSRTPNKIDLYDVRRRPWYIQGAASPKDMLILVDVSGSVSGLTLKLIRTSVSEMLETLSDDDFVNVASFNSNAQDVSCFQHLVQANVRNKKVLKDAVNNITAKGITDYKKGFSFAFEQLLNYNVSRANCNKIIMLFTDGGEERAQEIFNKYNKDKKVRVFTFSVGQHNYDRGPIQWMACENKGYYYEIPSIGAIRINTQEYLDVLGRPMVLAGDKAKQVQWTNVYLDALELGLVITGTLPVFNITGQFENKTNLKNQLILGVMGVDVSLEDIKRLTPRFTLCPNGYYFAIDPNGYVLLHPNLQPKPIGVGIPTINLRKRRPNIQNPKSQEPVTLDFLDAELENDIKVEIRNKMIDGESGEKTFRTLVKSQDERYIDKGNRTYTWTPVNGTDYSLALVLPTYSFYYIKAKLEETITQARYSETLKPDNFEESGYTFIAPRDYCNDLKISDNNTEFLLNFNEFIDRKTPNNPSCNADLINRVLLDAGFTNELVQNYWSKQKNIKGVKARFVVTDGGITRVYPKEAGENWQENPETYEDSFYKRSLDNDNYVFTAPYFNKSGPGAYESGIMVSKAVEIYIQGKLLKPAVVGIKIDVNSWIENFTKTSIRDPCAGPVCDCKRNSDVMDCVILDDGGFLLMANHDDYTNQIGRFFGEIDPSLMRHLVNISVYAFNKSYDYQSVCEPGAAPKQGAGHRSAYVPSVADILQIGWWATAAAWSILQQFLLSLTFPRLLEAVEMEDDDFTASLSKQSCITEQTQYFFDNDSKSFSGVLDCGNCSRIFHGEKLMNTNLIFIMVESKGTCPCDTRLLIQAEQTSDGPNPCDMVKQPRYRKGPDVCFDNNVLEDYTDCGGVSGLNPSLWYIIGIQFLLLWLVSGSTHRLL
N-type calcium channel subunits (α1B, α2δ, and β3a), sequence (P54284 whole entry partner): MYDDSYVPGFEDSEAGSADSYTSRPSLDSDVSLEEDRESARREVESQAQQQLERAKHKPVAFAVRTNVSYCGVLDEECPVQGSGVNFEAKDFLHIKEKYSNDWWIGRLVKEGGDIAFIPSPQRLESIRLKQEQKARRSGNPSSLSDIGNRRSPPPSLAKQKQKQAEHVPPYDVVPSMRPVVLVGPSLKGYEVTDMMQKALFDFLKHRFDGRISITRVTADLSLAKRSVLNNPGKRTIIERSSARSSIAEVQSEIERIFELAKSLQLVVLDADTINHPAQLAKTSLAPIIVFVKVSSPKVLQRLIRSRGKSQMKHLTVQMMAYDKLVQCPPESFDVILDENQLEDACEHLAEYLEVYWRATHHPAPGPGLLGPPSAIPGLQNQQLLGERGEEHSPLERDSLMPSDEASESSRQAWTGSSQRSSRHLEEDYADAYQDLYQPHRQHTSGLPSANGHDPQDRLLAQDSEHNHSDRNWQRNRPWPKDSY

Row | SMILES | pIC50 [1] | pIC50 [2] | IC50 [3] | Epilepsy 6 Hz (% protected) 0.25 hr [4] | Epilepsy 6 Hz (% protected) 0.5 hr [4] | Epilepsy 6 Hz (% protected) 1 hr [4] | Epilepsy 6 Hz (% protected) 2 hr [4] | Epilepsy 6 Hz (% protected) 4 hr [4] | EPILEPSY ROTAROD (% IMPAIRED) 0.25 hr [5] | EPILEPSY ROTAROD (% IMPAIRED) 0.5 hr [5] | EPILEPSY ROTAROD (% IMPAIRED) 1 hr [5] | EPILEPSY ROTAROD (% IMPAIRED) 2 hr [5] | EPILEPSY ROTAROD (% IMPAIRED) 4 hr [5] | EPILEPSY ROTAROD (% IMPAIRED) 0.25 hr [6] | EPILEPSY ROTAROD (% IMPAIRED) 0.5 hr [6] | EPILEPSY ROTAROD (% IMPAIRED) 1 hr [6] | EPILEPSY ROTAROD (% IMPAIRED) 2 hr [6] | EPILEPSY ROTAROD (% IMPAIRED) 4 hr [6]
1 | O=C(NC1CCC(F)(S(=O)(=O)c2cccc(C(F)(F)F)c2)CC1)c1nocc1C1CC1 [Compound 272, 4-cyclopropyl-N-((1S,4S)-4-fluoro-4-(3-(trifluoromethyl)phenylsulfonyl)cyclohexyl) isoxazole-3-carboxamide] | < 5.00 | < 5.00 | 430 nM | 0% | 0% | 0% | 0% | 0% | 0% | 0% | 0% | 0% | 0% | – | – | – | – | –
2 | O=C(NC1CCC(F)(S(=O)(=O)c2cccc(C(F)(F)F)c2)CC1)[C@@H]1C[C@@H](c2ccccc2)CN1 (stereo partly drawn) [Compound 285, (2S,4S)-N-((1S,4R)-4-fluoro-4-(3-(trifluoromethyl)phenylsulfonyl)cyclohexyl)-4-phenylpyrrolidine-2-carboxamide] | – | – | – | 0% | 100% | 100% | 100% | 0% | 100% | 100% | 100% | 100% | 0% | – | – | – | – | –
3 | CS(=O)(=O)c1nc(C(F)(F)F)ccc1C(=O)NCC1CC(S(=O)(=O)c2cccc(C(F)(F)F)c2)C1 [Compound 365, 2-(methylsulfonyl)-6-(trifluoromethyl)-N-(((1R,3R)-3-(3-(trifluoromethyl)phenylsulfonyl)cyclobutyl)methyl)nicotinamide] | 5.19 | 5.66 | 1610 nM | 25% | 50% | 50% | 25% | 25% | 0% | 0% | 0% | 0% | 0% | – | – | – | – | –
4 | CC(C)S(=O)(=O)c1cc(C(F)(F)F)cnc1C(=O)NC[C@H]1C[C@H](S(=O)(=O)c2cccc(C(F)(F)F)c2)C1 [Compound 374, 3-(isopropylsulfonyl)-5-(trifluoromethyl)-N-(((1R,3R)-3-(3-(trifluoromethyl)phenylsulfonyl)cyclobutyl)methyl)picolinamide] | 5.11 | 5.68 | 250 nM | 0% | 0% | 0% | 0% | 0% | 0% | 0% | 0% | 0% | 0% | – | – | – | – | –
5 | O=C(NCC1CC(S(=O)(=O)c2cc(F)cc(C(F)(F)F)c2)C1)c1cc(F)cc(Cl)c1 [Compound 396, 3-chloro-5-fluoro-N-(((1R,3R)-3-(3-fluoro-5-(trifluoromethyl)phenylsulfonyl)cyclobutyl)methyl)benzamide] | – | – | 940 nM | 50% | 0% | 0% | 25% | 0% | – | – | – | – | – | 0% | 0% | 0% | 0% | 0%
6 | CC(C)(C1CC(NC(=O)c2cn3cc(C(F)(F)F)ccc3n2)C1)S(=O)(=O)c1cccc(C(F)(F)F)c1 [Compound 438, 6-(trifluoromethyl)-N-((1R,3R)-3-(2-(3-(trifluoromethyl)phenylsulfonyl)propan-2-yl)cyclobutyl)imidazo[1,2-a]pyridine-2-carboxamide] | – | – | 400 nM | 75% | 0% | 0% | 25% | 0% | – | – | – | – | – | 0% | 0% | 0% | 0% | 0%
